Laboratory results: patent US20220372040A1, “METTL3 MODULATORS” (Accent Therapeutics, Inc., priority 2020, published 2022)

What was measured:
METTL3/METTL14 = METTL3/METTL14 (Homo sapiens, UniProt Q86U44); experiment: METTL3-14 standard enzyme assay (3H-SAM flashplate scintillation); format: biochemical; details: METTL3/METTL14 2.5 nM, RNA 100 nM, 3H-SAM 100 nM, 30 min
Protocol: METTL3-14 Standard Enzyme Assay
Assays were performed in a 25 μl-volume in 384-well V-bottom polypropylene microplates (Greiner Bio-One, cat. No. 781280) at ambient temperature. Optimized 1× assay buffer was 20 mM HEPES pH 7.5, 50 mM KCl, 250 μM MgCl2, 1 mM DTT, 0.01% Tween, 0.01% BSG, 0.004 U/μl RNAseOUT (cat. No. 10777019, ThermoFisher Scientific, Waltham, Mass.). For compound screening METTL3/METTL14 (final concentration, f.c.=2.5 nM) was added using a Multidrop Combi (ThermoFisher Scientific, Waltham, Mass.) and preincubated for 5 min. Reactions were started by adding 3′ biotinylated RNA (UCUGGACUAAA-biotin) (f.c.=100 nM) and 3H-SAM (f.c.=100 nM) substrates. Reactions proceeded for 30 minutes and were quenched with excess non-radioactive SAM (f.c.=15 μM). The reactions were then transferred to streptavidin-coated flashplates and incubated for 2 hours at 25° C. Following two washing cycles with 0.1% Tween-20, the plates were sealed and read on a TopCount (PerkinElmer, Waltham, Mass.) plate-based scintillation counter. For determination of kinetic parameters, reaction times were optimized so that measurements were taken during the initial velocity phase of the reaction.

PRMT5-MEP50 = PRMT5-MEP50 (Homo sapiens, UniProt O14744); experiment: PRMT5 assay (3H-SAM flashplate scintillation); format: biochemical; details: PRMT5-MEP50 2.5 nM, histone H4 peptide 100 nM, 3H-SAM 250 nM, 60 min
Protocol: Assays were performed in a 25 μl-volume in 384-well V-bottom polypropylene microplates (Greiner Bio-One, cat. No. 781280) at ambient temperature. Optimized 1× assay buffer was 20 mM Tris-HCl pH 8.0, 1 mM DTT, […]. For compound screening PRMT5-MEP50 (final concentration, f.c.=2.5 nM) was added using a Multidrop Combi (ThermoFisher Scientific, Waltham, Mass.) and preincubated for 5 min. Reactions were started by adding 3′ biotinylated histone H4 peptide acetylated on serine 1 (Ac-[…]-Biotin) (f.c.=100 nM) and 3H-SAM (f.c.=250 nM) substrates. Reactions proceeded for 60 minutes and were quenched with excess non-radioactive SAM (f.c.=15 μM). The reactions were then transferred to streptavidin-coated flashplates and incubated for 2 hours at 25° C. Following two washing cycles with 0.1% Tween-20, the plates were sealed and read on a TopCount (PerkinElmer, Waltham, Mass.) plate-based scintillation counter. For determination of kinetic parameters, reaction times were optimized so that measurements were taken during the initial velocity phase of the reaction.

PRMT5-MEP50, sequence (O14744 whole entry): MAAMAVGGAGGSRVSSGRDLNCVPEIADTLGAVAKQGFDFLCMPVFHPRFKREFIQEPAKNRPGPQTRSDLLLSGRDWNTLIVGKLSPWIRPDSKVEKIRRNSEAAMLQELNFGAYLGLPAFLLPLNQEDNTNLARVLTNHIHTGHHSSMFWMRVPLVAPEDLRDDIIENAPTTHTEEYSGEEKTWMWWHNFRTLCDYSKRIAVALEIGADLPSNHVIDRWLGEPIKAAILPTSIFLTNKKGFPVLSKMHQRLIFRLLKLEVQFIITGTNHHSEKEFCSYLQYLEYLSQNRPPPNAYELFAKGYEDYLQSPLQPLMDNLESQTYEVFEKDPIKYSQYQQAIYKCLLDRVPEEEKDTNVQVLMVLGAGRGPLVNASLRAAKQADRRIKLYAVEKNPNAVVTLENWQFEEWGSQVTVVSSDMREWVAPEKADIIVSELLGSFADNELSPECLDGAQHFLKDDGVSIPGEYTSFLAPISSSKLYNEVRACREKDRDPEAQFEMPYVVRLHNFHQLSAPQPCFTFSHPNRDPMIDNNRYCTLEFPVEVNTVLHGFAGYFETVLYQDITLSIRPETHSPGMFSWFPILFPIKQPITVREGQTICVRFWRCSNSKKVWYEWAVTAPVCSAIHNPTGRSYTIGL
PRMT5-MEP50, sequence (Q9BQA1 whole entry partner): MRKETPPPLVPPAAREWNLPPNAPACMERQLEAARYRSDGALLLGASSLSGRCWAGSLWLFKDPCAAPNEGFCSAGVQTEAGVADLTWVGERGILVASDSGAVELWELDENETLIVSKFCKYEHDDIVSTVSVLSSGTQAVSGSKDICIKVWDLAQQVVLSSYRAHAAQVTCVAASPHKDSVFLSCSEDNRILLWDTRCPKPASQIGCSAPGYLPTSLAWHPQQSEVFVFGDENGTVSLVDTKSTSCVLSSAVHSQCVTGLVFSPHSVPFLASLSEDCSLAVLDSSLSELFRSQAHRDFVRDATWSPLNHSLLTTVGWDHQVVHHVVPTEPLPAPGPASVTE
METTL3/METTL14, sequence (Q86U44 whole entry, species assumed): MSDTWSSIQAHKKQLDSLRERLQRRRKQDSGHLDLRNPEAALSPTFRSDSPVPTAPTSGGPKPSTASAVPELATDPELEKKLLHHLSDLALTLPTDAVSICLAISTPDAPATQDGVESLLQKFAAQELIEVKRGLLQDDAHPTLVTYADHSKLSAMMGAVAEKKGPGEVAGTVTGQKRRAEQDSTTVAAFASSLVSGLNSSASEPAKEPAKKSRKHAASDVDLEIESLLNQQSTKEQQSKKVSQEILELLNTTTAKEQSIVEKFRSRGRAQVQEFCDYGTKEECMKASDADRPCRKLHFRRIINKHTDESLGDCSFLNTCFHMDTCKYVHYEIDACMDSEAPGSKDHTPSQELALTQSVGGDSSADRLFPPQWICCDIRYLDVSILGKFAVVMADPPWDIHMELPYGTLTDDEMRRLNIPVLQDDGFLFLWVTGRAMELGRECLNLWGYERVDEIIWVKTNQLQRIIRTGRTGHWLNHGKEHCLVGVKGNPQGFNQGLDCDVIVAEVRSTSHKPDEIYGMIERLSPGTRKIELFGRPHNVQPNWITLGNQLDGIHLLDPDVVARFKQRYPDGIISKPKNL
METTL3/METTL14, sequence (Q9HCE5 whole entry partner, species assumed): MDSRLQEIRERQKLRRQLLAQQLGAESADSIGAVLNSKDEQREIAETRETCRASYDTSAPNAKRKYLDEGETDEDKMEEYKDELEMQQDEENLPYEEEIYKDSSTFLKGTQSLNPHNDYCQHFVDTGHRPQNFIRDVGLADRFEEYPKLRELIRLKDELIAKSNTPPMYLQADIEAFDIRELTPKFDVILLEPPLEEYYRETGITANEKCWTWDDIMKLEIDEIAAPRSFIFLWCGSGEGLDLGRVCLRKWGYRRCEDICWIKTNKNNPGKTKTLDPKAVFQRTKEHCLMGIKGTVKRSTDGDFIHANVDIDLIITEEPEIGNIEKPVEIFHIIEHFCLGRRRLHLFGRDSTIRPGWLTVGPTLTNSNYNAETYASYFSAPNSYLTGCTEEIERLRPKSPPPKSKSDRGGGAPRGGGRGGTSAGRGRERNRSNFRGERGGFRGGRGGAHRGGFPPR

SMILES	IC50 (METTL3/METTL14)	IC50 (PRMT5-MEP50)
Nc1ncnc2c1ccn2-c1csc(COc2ccc3ccc(N4CCCC4)nc3c2)n1 [Compound I-54]	0.1 to 1 µM	> 1 µM
Cc1cc(NCCN(C)CCCCc2ccccc2)c2ccc(OCc3cncc(-n4ccc5c(N)ncnc54)c3)cc2n1 [Compound I-102]	0.01 to 0.1 µM	> 1 µM
CCc1cc(=O)c2ccc(OCc3cncc(-n4cc(C5CCCC5)c5c(N)ncnc54)c3)cc2[nH]1 [Compound I-105]	0.1 to 1 µM	> 1 µM
CC(C)c1cc(N)c2ccc(CCc3cncc(-n4ccc5c(N)ncnc54)c3)cc2n1 [Compound I-129]	0.01 to 0.1 µM	
CC(C)c1cc(N)c2ccc(CCc3cncc(-n4cc(C5CCCC5)c5c(N)ncnc54)c3)cc2n1 [Compound I-130]	0.01 to 0.1 µM	
CCc1cc(NCCOC)c2ccc(OCc3cncc(-n4cc([C@H]5CCCO5)c5c(N)ncnc54)c3)cc2n1 [Compound I-133]	0.01 to 0.1 µM	
CCNc1ccc2ccc(CCc3cncc(-n4cc([C@@H]5CCCO5)c5c(N)ncnc54)n3)cc2n1 [Compound I-140]	< 0.01 µM	
CCc1cc(N2CCNCC2)c2ccc(OCc3cncc(-n4cc([C@H]5CCCO5)c5c(N)ncnc54)c3)cc2n1 [Compound I-148]	0.01 to 0.1 µM	
Nc1ncnc2c1c([C@@H]1CCCO1)cn2-c1cncc(COc2ccc3ccc(N4CCC4)nc3c2)n1 [Compound I-161]	< 0.01 µM	
CCc1cc(NCCOC)c2c(F)cc(OCc3cncc(-n4cc([C@@H]5CCCO5)c5c(N)ncnc54)c3)cc2n1 [Compound I-164]	0.01 to 0.1 µM	
CCc1cc(NC(C)=O)c2ccc(OCc3cncc(-n4cc([C@@H]5CCCO5)c5c(N)ncnc54)c3)cc2n1 [Compound I-165]	0.01 to 0.1 µM	
CCc1cc(C)c2ccc(OCc3cncc(-n4cc([C@@H]5CCCO5)c5c(N)ncnc54)c3)cc2n1 [Compound I-168]	0.01 to 0.1 µM	
CCc1cc(NCCOC)c2c(F)cc(OCc3cncc(-n4cc(C5CCCO5)c5c(N)ncnc54)n3)cc2n1 (stereo not shown) [Compound I-172]	> 1 µM	> 1 µM
CCc1cc(N(C)C2CC2)c2ccc(OCc3cncc(-n4cc([C@@H]5CCCO5)c5c(N)ncnc54)n3)cc2n1 [Compound I-174]	0.01 to 0.1 µM	> 1 µM
Cn1ccc(-c2cn(-c3cncc(COc4ccc(C(=O)N5CCNCC5)c(N)c4)c3)c3ncnc(N)c23)n1 [Compound I-176]	0.1 to 1 µM	> 1 µM
CN(C)C(=O)c1ccc(OCc2cncc(-n3cc(-c4ccn(C)n4)c4c(N)ncnc43)c2)cc1N [Compound I-177]	> 1 µM	> 1 µM
CN(CC1CC1)C(=O)c1ccc(OCc2cncc(-n3cc(-c4ccn(C)n4)c4c(N)ncnc43)c2)cc1N [Compound I-179]	> 1 µM	> 1 µM

SMILES	IC50 (METTL3/METTL14)	IC50 (PRMT5-MEP50)
CCc1ccc2ccc(OCc3cncc(-n4cc(-c5ccn(C)n5)c5c(N)ncnc54)c3)cc2n1 [Compound I-180]	0.01 to 0.1 µM	> 1 µM
Nc1ncnc2c1c(CO)cn2-c1cncc(COc2ccc3ccc(N4CCC4)nc3c2)c1 [Compound I-182]	< 0.01 µM	
COc1ccccc1-c1cn(-c2cncc(COc3ccc4ccc(N5CCC5)nc4c3)c2)c2ncncc12 [Compound I-184]	> 1 µM	> 1 µM
Cn1ccc(-c2cn(-c3cncc(COc4ccc(C(=O)NC5CCOCC5)c(N)c4)c3)c3ncnc(N)c23)n1 [Compound I-187]	0.1 to 1 µM	> 1 µM
Cn1ccc(-c2cn(-c3cncc(COc4ccc5ccc(N6CCC6=O)nc5c4)c3)c3ncnc(N)c23)n1 [Compound I-188]	> 1 µM	> 1 µM
Cn1ccc(-c2cn(-c3cncc(COc4ccc5ccc(C6CCOCC6)nc5c4)c3)c3ncnc(N)c23)n1 [Compound I-189]	0.1 to 1 µM	> 1 µM
Nc1ncnc2c(-c3cncc(COc4ccc5ccc(N6CCC6)nc5c4)c3)c[nH]c12 [Compound I-190]	< 0.01 µM	> 1 µM
COCCN(C)C(=O)c1ccc(OCc2cncc(-n3cc(-c4ccn(C)n4)c4c(N)ncnc43)c2)cc1N [Compound I-191]	> 1 µM	> 1 µM
Cn1ccc(-c2cn(-c3cncc(COc4ccc5ccc(N6CC7(CCC7)C6)nc5c4)c3)c3ncnc(N)c23)n1 [Compound I-194]	0.1 to 1 µM	> 1 µM
Cn1ccc(-c2cn(-c3cncc(COc4ccc5ccc(N6CCCC6=O)nc5c4)c3)c3ncnc(N)c23)n1 [Compound I-195]	> 1 µM	> 1 µM
Cn1ccc(-c2cn(-c3cncc(COc4ccc5ccc(N6CCOCC6)nc5c4)c3)c3ncnc(N)c23)n1 [Compound I-196]	0.01 to 0.1 µM	0.1 to 1 µM
Cn1ccc(-c2cn(-c3cncc(COc4ccc5ccc(N6CCC(F)(F)CC6)nc5c4)c3)c3ncnc(N)c23)n1 [Compound I-197]	0.1 to 1 µM	> 1 µM
CCc1cc(N2CCC2)nc2cc(F)cc(OCc3cncc(-n4cc(C5CCCO5)c5c(N)ncnc54)c3)c12 (stereo not shown) [Compound I-198]	> 1 µM	> 1 µM
CCc1cc(N2CCC2)nc2cc(OCc3cncc(-n4cc(C5CCCO5)c5c(N)ncnc54)c3)cc(F)c12 (stereo not shown) [Compound I-199]	> 1 µM	> 1 µM
Cn1ccc(-c2cn(-c3cncc(COc4ccc(CN5CCC(CO)CC5)c(N)c4)c3)c3ncnc(N)c23)n1 [Compound I-200]	0.1 to 1 µM	> 1 µM
Cn1ccc(-c2cn(-c3cncc(COc4ccc5ccc(N6CC7(COC7)C6)nc5c4)c3)c3ncnc(N)c23)n1 [Compound I-201]	0.1 to 1 µM	> 1 µM

The next lines start with the values.

IC50 (METTL3/METTL14)	IC50 (PRMT5-MEP50)	SMILES
> 1 µM		Nc1ncnc2c1c(Cl)cn2-c1cccc(COc2ccc3ccc(N4CCCC4)nc3c2)c1 [Compound I-63]
< 0.01 µM	> 1 µM	CC(C)c1cc(N)c2ccc(OCc3cncc(-c4c[nH]c5c(N)ncnc45)c3)cc2n1 [Compound I-101]
0.01 to 0.1 µM	> 1 µM	Cc1cc(NCCN(C)CCCCCc2ccccc2)c2ccc(OCc3cncc(-n4ccc5c(N)ncnc54)c3)cc2n1 [Compound I-103]
0.01 to 0.1 µM		CCNc1ccc2ccc(CCc3cncc(-n4cc([C@H]5CCCO5)c5c(N)ncnc54)n3)cc2n1 [Compound I-139]
0.01 to 0.1 µM		CCc1cc(NCCOC)c2ncc(OCc3cncc(-n4cc([C@H]5CCCO5)c5c(N)ncnc54)c3)cc2n1 [Compound I-151]
0.01 to 0.1 µM		CCNc1ccc2ccc(CCc3cncc(-n4cc(C5CCCO5)c5c(N)ncnc54)c3)cc2n1 (stereo not shown) [Compound I-157]
0.01 to 0.1 µM		Nc1ncnc2c1c([C@H]1CCCO1)cn2-c1cncc(COc2ccc3ccc(N4CCC4)nc3c2)n1 [Compound I-160]
0.01 to 0.1 µM		CCc1cc(NCCOC)c2c(F)cc(OCc3cncc(-n4cc([C@H]5CCCO5)c5c(N)ncnc54)c3)cc2n1 [Compound I-163]
0.1 to 1 µM		Nc1cc(OCc2cncc(-n3cc([C@@H]4CCCO4)c4c(N)ncnc43)c2)ccc1C(=O)N1CCNCC1 [Compound I-166]
> 1 µM	> 1 µM	CC1COc2ccc(OCc3cncc(-n4cc(-c5ccn(C)n5)c5c(N)ncnc54)c3)cc2N1 (stereo not shown) [Compound I-171]
0.1 to 1 µM	> 1 µM	C[S+]([O-])c1cn(-c2cncc(COc3ccc4ccc(N5CCC5)nc4c3)c2)c2ncnc(N)c12 (stereo not shown) [Compound I-173]
0.1 to 1 µM	> 1 µM	CN(CCS(C)(=O)=O)c1ccc2ccc(OCc3cncc(-n4cc(-c5ccn(C)n5)c5c(N)ncnc54)c3)cc2n1 [Compound I-175]
> 1 µM	> 1 µM	Cn1ccc(-c2cn(-c3cncc(COc4ccc(C(=O)N5CCOCC5)c(N)c4)c3)c3ncnc(N)c23)n1 [Compound I-178]
> 1 µM	> 1 µM	Cn1ccc(-c2cn(-c3cncc(COc4cc(F)ccc4C(=O)NC4CCOCC4)c3)c3ncnc(N)c23)n1 [Compound I-181]
> 1 µM	> 1 µM	Cn1ccc(-c2cn(-c3cncc(COc4ccc5cnc(N6CCC6)nc5c4)c3)c3ncnc(N)c23)n1 [Compound I-183]
> 1 µM	> 1 µM	Cn1ccc(-c2cn(-c3cncc(COc4ccc(C(=O)N5CCC(F)(F)CC5)c(N)c4)c3)c3ncnc(N)c23)n1 [Compound I-186]
0.01 to 0.1 µM	> 1 µM	CC(=O)NC1CN(c2ccc3ccc(OCc4cncc(-n5cc(-c6ccn(C)n6)c6c(N)ncnc65)c4)cc3n2)C1 [Compound I-202]
0.01 to 0.1 µM	> 1 µM	Cn1ccc(-c2cn(-c3cncc(COc4ccc5ccc(N6CC7(CC7)C6)nc5c4)c3)c3ncnc(N)c23)n1 [Compound I-203]
